For assay [1], the target named is T1, human wild type STING (WT STING) (Homo sapiens, UniProt Q86WV6, H232R). The experiment in a line: 293T WT STING standard reporter assay. Conditions: standard reporter assay without digitonin, 7 hours, ISRE firefly luciferase. Type of assay: cell-based. (In general: Reporter assays use an easily measured gene product as a stand-in for the process of interest.)
The test system of assay [2] is peripheral blood mononuclear cell (PBMC). The experiment in a line: Peripheral blood mononuclear cell assay. Conditions: average of one to four donors.
Assay [3] deals with T1, human wild type STING (WT STING). The experiment in a line: Digitonin assay using 293T wtSTING-FL reporter cells. The conditions noted are these: 293T wtSTING-FL cells; compounds in Digitonin buffer 30 minutes, then 5 hours in medium; ISRE firefly luciferase. It counts as cell-based.
The target of assay [4] is T2, AQ human STING (G230A-R293Q) (Homo sapiens, UniProt Q86WV6, G230A/H232R/R293Q).
T2 construct: truncated human WT STING or AQ STING (amino acid residues 140-343); 8xHis (N, cleaved yes); SUMO (N, cleaved yes); made in house; host or cells: E. coli Rosetta-gami B (DE3)
Kind of assay: Differential Scanning Fluorimetry with AQ STING. Conditions: thermal shift vs STING apoprotein; 150 μM CDN; truncated AQ STING (residues 140-343). Type of assay: binding.

Assay [5] concerns the target T3, human WT STING (Homo sapiens, UniProt Q86WV6, H232R).
T3 construct: truncated human WT STING or AQ STING (amino acid residues 140-343); 8xHis (N, cleaved yes); SUMO (N, cleaved yes); made in house; host or cells: E. coli Rosetta-gami B (DE3)
The experiment in a line: Differential Scanning Fluorimetry with WT STING. Type of assay: binding. Conditions: thermal shift vs STING apoprotein; 150 μM CDN; truncated WT STING (residues 140-343). Background: In DSF a fluorescence change marks the thermal transition of the protein.

Where [6] appears, read: 293T wtSTING-FL cells, read-out: 293T WT STING EC50.
Where [7] appears, read: PBMC, read-out: PBMC EC50 IFN-α, compounds 1h, washed, 15 hour incubation, interferon-alpha level in medium.
The mark [8] stands for this setting: PBMC, read-out: PBMC EC50 IFN-γ, compounds 1h, washed, 15 hour incubation, interferon-gamma level in medium.
Where [9] appears, read: PBMC, read-out: PBMC EC50 TNF-α, compounds 1h, washed, 15 hour incubation, tumor necrosis factor-alpha level in medium.
[10] abbreviates: 293T WT STING EC50, 293T wtSTING-FL cells.
[11] abbreviates: read-out: PBMC EC50 TNF-α, compounds 1h, washed, 15 hour incubation, tumor necrosis factor-alpha level in medium.
Setting [12] is: read-out: PBMC EC50 IFN-α, compounds 1h, washed, 15 hour incubation, interferon-alpha level in medium.
[13] abbreviates: read-out: PBMC EC50 IFN-γ, compounds 1h, washed, 15 hour incubation, interferon-gamma level in medium.

We go through 21 compounds from US12318403B2, “2′3′-cyclic dinucleotides and prodrugs thereof” (INSTITUTE OF ORGANIC CHEMISTRY AND BIOCHEMISTRY ASCR, V.V.I., priority 2019, dated 2025).

Like-named read-outs stand apart in the source and are kept apart here.

Broadly, the EC50 is the concentration at which the effect is half-maximal.

T1 sequence (Q86WV6 whole entry H232R): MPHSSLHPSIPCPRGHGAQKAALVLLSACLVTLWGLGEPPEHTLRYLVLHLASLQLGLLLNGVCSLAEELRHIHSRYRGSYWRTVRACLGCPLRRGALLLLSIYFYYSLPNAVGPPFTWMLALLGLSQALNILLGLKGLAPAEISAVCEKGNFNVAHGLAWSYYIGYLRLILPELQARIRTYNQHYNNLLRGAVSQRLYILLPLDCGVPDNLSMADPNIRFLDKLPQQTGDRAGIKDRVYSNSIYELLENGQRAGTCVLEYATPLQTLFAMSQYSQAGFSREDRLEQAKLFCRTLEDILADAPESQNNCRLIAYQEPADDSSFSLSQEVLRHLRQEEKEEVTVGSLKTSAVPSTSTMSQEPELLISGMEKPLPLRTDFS
T2 sequence (Q86WV6 140-343 G230A/H232R/R293Q): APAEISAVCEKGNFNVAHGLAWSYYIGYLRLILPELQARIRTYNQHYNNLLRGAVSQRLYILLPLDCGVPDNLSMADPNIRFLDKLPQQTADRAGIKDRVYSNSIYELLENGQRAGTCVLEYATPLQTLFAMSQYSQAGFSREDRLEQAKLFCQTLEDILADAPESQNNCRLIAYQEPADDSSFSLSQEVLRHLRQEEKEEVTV
T3 sequence (Q86WV6 140-343 H232R): as the sequence (Q86WV6 140-343 G230A/H232R/R293Q) above, with A91G, Q154R counted along it

In the case of `CC(C)(C)C(=O)OCOP1(=O)CO[C@H]2[C@@H](F)[C@H](n3cnc4c(N)ncnc43)O[C@@H]2COP(=O)(OCOC(=O)C(C)(C)C)O[C@@H]2[C@H](F)[C@@H](CO1)O[C@H]2n1cnc2c(N)ncnc21` (single isomer, unassigned) [Compound 81a], the EC50 turned out to be 50 nM in assay [1] (setting [6]), 1400 nM in assay [2] (setting [7]), 1700 nM in assay [2] (setting [8]) and 1600 nM in assay [2] (setting [9]).

For the compound `CC(C)OC(=O)OCOP1(=O)CO[C@H]2[C@@H](F)[C@H](n3cnc4c(N)ncnc43)O[C@@H]2COP(=O)(OCOC(=O)OC(C)C)O[C@@H]2[C@H](F)[C@@H](CO1)O[C@H]2n1cnc2c(N)ncnc21` (single isomer, unassigned) [Compound 80a], the EC50 in assay [1] (setting [6]) was 4200 nM; in assay [2] (setting [7]) it was greater than 5000 nM; in assay [2] (setting [8]) it was greater than 5000 nM; in assay [2] (setting [9]), greater than 5000 nM.

Regarding `CCCCCCCCCCCC(=O)OCSP1(=O)CO[C@H]2[C@@H](F)[C@H](n3cnc4c(N)ncnc43)O[C@@H]2COP(=O)(SCOC(=O)CCCCCCCCCCC)O[C@@H]2[C@H](F)[C@@H](CO1)O[C@H]2n1cnc2c(=O)[nH]c(N)nc21` (single isomer, unassigned) [Compound 78c], the figures for the EC50 in assay [1] (setting [10]), in assay [2] (setting [7]) and in assay [2] (setting [11]) were 60 nM, 3400 nM and 3000 nM, respectively.

Turning to `CC(C)OC(=O)OCOP1(=O)CO[C@H]2[C@@H](F)[C@H](n3cnc4c(N)ncnc43)O[C@@H]2COP(=O)(OCOC(=O)OC(C)C)O[C@@H]2[C@H](F)[C@@H](CO1)O[C@H]2n1cnc2c(N)ncnc21` (single isomer, unassigned) [Compound 80c], the EC50 is 1100 nM in assay [1] (setting [6]), greater than 5000 nM in assay [2] (setting [12]), greater than 5000 nM in assay [2] (setting [13]) and greater than 5000 nM in assay [2] (setting [11]).

As to `CCCCCCCCCCCC(=O)OCOP1(=O)CO[C@H]2[C@@H](F)[C@H](n3cnc4c(N)ncnc43)O[C@@H]2COP(=O)(OCOC(=O)CCCCCCCCCCC)O[C@@H]2[C@H](F)[C@@H](CO1)O[C@H]2n1cnc2c(=O)[nH]cnc21` (single isomer, unassigned) [Compound 79a], the results for the EC50 in assay [1] (setting [6]), in assay [2] (setting [7]) and in assay [2] (setting [13]) were 3 nM, 200 nM and 100 nM, respectively.

As for `Nc1ncnc2c1ncn2[C@@H]1O[C@@H]2COP(=O)(O)O[C@@H]3[C@H](F)[C@@H](COP(=O)(O)CO[C@H]2[C@H]1F)O[C@H]3n1cnc2c(=O)[nH]cnc21` [Compound 22], the 50% effective concentration (EC50) in assay [1] (setting [6]) worked out at 8100 nM; in assay [2] (setting [7]), 160000 nM; in assay [2] (setting [8]), 125000 nM; in assay [2] (setting [9]) it was 90000 nM.

As to `Nc1ncnc2c1ncn2[C@@H]1O[C@@H]2COP(=O)(S)O[C@@H]3[C@H](F)[C@@H](COP(=O)(S)CO[C@H]2[C@H]1F)O[C@H]3n1cnc2c(N)ncnc21` (single isomer, unassigned) [Compound 30a], the EC50 in assay [3] was 11200 nM.

Turning to `Nc1ncnc2c1ncn2[C@@H]1O[C@@H]2COP(=O)(S)O[C@@H]3[C@H](F)[C@@H](COP(=O)(S)CO[C@H]2[C@H]1F)O[C@H]3n1cnc2c(N)ncnc21` (single isomer, unassigned) [Compound 30c], the response in assay [3] was half-maximal at 600 nM (EC50).

As for `CCCCCCCCCCCC(=O)OCOP1(=O)CO[C@H]2[C@@H](F)[C@H](n3cnc4c(N)ncnc43)O[C@@H]2COP(=O)(OCOC(=O)CCCCCCCCCCC)O[C@@H]2[C@H](F)[C@@H](CO1)O[C@H]2n1cnc2c(=O)[nH]cnc21` (single isomer, unassigned) [Compound 79b], the 50% effective concentration (EC50) in assay [1] (setting [6]) is 20 nM; in assay [2] (setting [12]), 200 nM; in assay [2] (setting [13]) it was 10 nM; in assay [2] (setting [11]), 200 nM.

As to `CCCCCCCCCCCC(=O)OCSP1(=O)CO[C@H]2[C@@H](F)[C@H](n3cnc4c(N)ncnc43)O[C@@H]2COP(=O)(SCOC(=O)CCCCCCCCCCC)O[C@@H]2[C@H](F)[C@@H](CO1)O[C@H]2n1cnc2c(=O)[nH]c(N)nc21` (single isomer, unassigned) [Compound 78d], the concentration giving a half-maximal response (EC50) in assay [1] (setting [10]) came out at 40 nM; in assay [2] (setting [12]) it was 3400 nM; in assay [2] (setting [11]), 800 nM.

As to `CC(C)(C)C(=O)OCOP1(=O)CO[C@H]2[C@@H](F)[C@H](n3cnc4c(N)ncnc43)O[C@@H]2COP(=O)(OCOC(=O)C(C)(C)C)O[C@@H]2[C@H](F)[C@@H](CO1)O[C@H]2n1cnc2c(=O)[nH]cnc21` (single isomer, unassigned) [Compound 77c], the EC50 in assay [1] (setting [6]) is 200 nM; in assay [2] (setting [12]), 700 nM; in assay [2] (setting [13]), 2300 nM; in assay [2] (setting [11]) it was 3700 nM.

On to `Nc1ncnc2c1ncn2[C@@H]1O[C@@H]2COP(=O)(S)O[C@@H]3[C@H](F)[C@@H](COP(=O)(S)CO[C@H]2[C@H]1F)O[C@H]3n1cnc2c(N)ncnc21` (single isomer, unassigned) [Compound 30b], for which, in assay [3], the EC50 came to 400 nM.

With `CC(C)(C)C(=O)OCOP1(=O)CO[C@H]2[C@@H](F)[C@H](n3cnc4c(N)ncnc43)O[C@@H]2COP(=O)(OCOC(=O)C(C)(C)C)O[C@@H]2[C@H](F)[C@@H](CO1)O[C@H]2n1cnc2c(=O)[nH]cnc21` (single isomer, unassigned) [Compound 77b], the EC50 in assay [1] (setting [6]) is 300 nM; in assay [2] (setting [12]) it was 4000 nM; in assay [2] (setting [13]) it was 3000 nM; in assay [2] (setting [11]), 3600 nM.

Turning to `Nc1nc2c(ncn2[C@@H]2O[C@@H]3COP(=O)(O)O[C@@H]4[C@H](O)[C@@H](COP(=O)(O)O[C@@H]2[C@@H]3O)O[C@H]4n2cnc3c(N)ncnc32)c(=O)[nH]1` [2′2′-cGAMP, reference compound], the EC50 came to 10200 nM in assay [1] (setting [6]) and 30 nM in assay [3]. For the same compound, the “DSF ΔTm AQ STING” value in assay [4] worked out at 19.4 °C.

`CC(C)OC(=O)OCOP1(=O)CO[C@H]2[C@@H](F)[C@H](n3cnc4c(N)ncnc43)O[C@@H]2COP(=O)(OCOC(=O)OC(C)C)O[C@@H]2[C@H](F)[C@@H](CO1)O[C@H]2n1cnc2c(N)ncnc21` (stereo partly drawn) [Compound 80b, {[(1S,6R,8R,9R,10R,16R,18R,19R)-8,18-bis(6-amino-9H-purin-9-yl)-9,19-difluoro-3,13-dioxo-13-({[(propan-2-yloxy)carbonyl]oxy}methoxy)-2,4,7,11,14,17-hexaoxa-3λ^5,13λ^5-diphosphatricyclo[14.2.1.0^6,10]nonadecan-3-yl]oxy}methyl propan-2-yl carbonate]: the EC50 in assay [1] (setting [6]) was found to be 900 nM; in assay [2] (setting [7]), 1300 nM; in assay [2] (setting [8]) it was 1600 nM; in assay [2] (setting [9]), 1500 nM.

Turning to `CCCCCCCCCCCC(=O)OCOP1(=O)CO[C@H]2[C@@H](F)[C@H](n3cnc4c(N)ncnc43)O[C@@H]2COP(=O)(OCOC(=O)CCCCCCCCCCC)O[C@@H]2[C@H](F)[C@@H](CO1)O[C@H]2n1cnc2c(=O)[nH]cnc21` (single isomer, unassigned) [Compound 79c], the 50% effective concentration (EC50) in assay [1] (setting [6]) is 3 nM; in assay [2] (setting [12]), 100 nM; in assay [2] (setting [13]), 50 nM; in assay [2] (setting [11]), 90 nM.

For `Nc1nc2c(ncn2[C@@H]2O[C@@H]3COP(=O)(S)CO[C@H]4[C@@H](F)[C@H](n5cnc6c(N)ncnc65)O[C@@H]4COP(=O)(O)O[C@@H]2[C@@H]3F)c(=O)[nH]1` (single isomer, unassigned) [Compound 15b], in assay [1] (setting [6]), the concentration for a half-maximal effect (EC50) was 4700 nM. For the same compound, the “DSF ΔTm WT STING” value in assay [5] amounted to 19.4 °C. The “DSF ΔTm AQ STING” value in assay [4] amounted to 27.0 °C.

In the case of `CC(C)(C)C(=O)OCSP1(=O)CO[C@H]2[C@@H](F)[C@H](n3cnc4c(N)ncnc43)O[C@@H]2COP(=O)(SCOC(=O)C(C)(C)C)O[C@@H]2[C@H](F)[C@@H](CO1)O[C@H]2n1cnc2c(=O)[nH]c(N)nc21` (single isomer, unassigned) [Compound 55c], the EC50 in assay [1] (setting [10]) came out at 650 nM; in assay [2] (setting [7]), 10000 nM; in assay [2] (setting [8]), 3700 nM; in assay [2] (setting [9]), 7000 nM.

For `CC(C)(C)C(=O)OCOP1(=O)CO[C@H]2[C@@H](F)[C@H](n3cnc4c(N)ncnc43)O[C@@H]2COP(=O)(OCOC(=O)C(C)(C)C)O[C@@H]2[C@H](F)[C@@H](CO1)O[C@H]2n1cnc2c(=O)[nH]cnc21` (single isomer, unassigned) [Compound 77a], the 50% effective concentration (EC50) in assay [1] (setting [6]) stood at 600 nM; in assay [2] (setting [8]), 1700 nM; in assay [2] (setting [12]), 2800 nM; in assay [2] (setting [11]) it was 1400 nM.

In the case of `CC(C)(C)C(=O)OCOP1(=O)CO[C@H]2[C@@H](F)[C@H](n3cnc4c(N)ncnc43)O[C@@H]2COP(=O)(OCOC(=O)C(C)(C)C)O[C@@H]2[C@H](F)[C@@H](CO1)O[C@H]2n1cnc2c(N)ncnc21` (single isomer, unassigned) [Compound 81b], the EC50 in assay [1] (setting [6]) amounted to 50 nM; in assay [2] (setting [12]) it was 1000 nM; in assay [2] (setting [13]) it was 1400 nM; in assay [2] (setting [11]), 1300 nM.

`CCCCCCCCCCCC(=O)Oc1ccc(CSP2(=O)CO[C@H]3[C@@H](F)[C@H](n4cnc5c(N)ncnc54)O[C@@H]3COP(=O)(O)O[C@@H]3[C@H](F)[C@@H](CO2)O[C@H]3n2cnc3c(=O)[nH]c(N)nc32)cc1` (single isomer, unassigned) [Compound 47b] gave an EC50 in assay [1] (setting [10]) of 90 nM.
